Results reported in US9657046B2, “Methods for the treatment and prevention of inflammatory diseases” (Children's Medical Center Corporation, priority 2010, dated 2017).

What was measured:
mouse NKT cell lines = experiment: Staining of mouse NKT cell line with PI57-loaded CD1d tetramers; assay type: binding
Description: (§1) In FIG. 7A, NKT cell lines were cocultured with BM-derived DCs (BMDCs) and α-GalCer (100 ng/ml), PI57 (10 μg/ml), or vehicle for 48 hours, with or without pre-incubation with anti-CD1d (10 μg/ml). IFN-γ was measured by ELISA. In FIG. 7B, murine NKT cell lines were cocultured as in 7A with BMDCs from WT, Cd1d^−/−, Myd88^−/−, or Trif^−/− mice. Cells were treated with α-GalCer (100 ng/ml), PI57 (2.5, 5, or 10 μg/ml), PBS30 (1, 2.5, or 5 μg/ml), or vehicle for 48 hours. IFN-γ and IL-4 were measured by ELISA. […] In FIG. 7D, mouse NKT cell lines were stained with PE-labeled CD1d tetramers of PI57 or α-GalCer at 4° C. for 45 minutes or 37° C. for 25 minutes, and with anti-TCRβ-APC antibody. Top: Lymphocytes were gated in the FSC/SSC window. Bottom: Percentage of CD1d tetramer+ cells. […] In FIG. 7G, CD1d Fc-coated Maxisorp plates were loaded with lipid and cultured with 5×10^4 NKT cells. IFN-γ was analyzed by ELISA after 24 hours. Data represent 3 or 5 independent experiments.
To generate PI57 loaded mCD1d monomers, a 10-fold molar excess of PI57 in DMSO at 2 mg/ml was incubated with biotinylated-mCD1d (from the NIH Tetramer facility) in 2 mM CHAPS and 20 mM Tris pH7.0 overnight at room temperature. […]
(§2) Cells were preincubated with anti-Fey blocking mAb (2.4G2) and washed before staining. […] Cells were analyzed on a BDCanto flow cytometer (BD Biosciences) using FlowJo 8.3.3 software (Tree Star, Inc.).

murine NKT cell lines = experiment: Mouse NKT cell lines cocultured with BM-derived DCs, cytokine ELISA; assay type: cell-based; conditions: 48 hours
Description: as §1
To establish mouse NKT cell lines, NKT cells were purified by a two-step sorting strategy using MACS. Spleen cells from BALB/c or BALB/c Vα14Jα18 Tg mice were depleted of T cells, B cells, granulocytes, macrophages and DCs by AutoMacs, then stained with PE conjugated-CD1d tetramer and FITC conjugated-anti-TCRβ mAb, and sorted using a MoFlo cell sorter (Dako). The purity of the sorted cells was >99%. To propagate the cells, sorted NKT cells were cultured in 96-well flat-bottom plates (1×10^5 cells/well) with 5×10^3 bone-marrow derived DC in the presence of murine IL-15 (Pepro Tech). Cells were subcultured and restimulated with fresh DCs once a week.
Mouse or human IL-4 and IFN-γ levels were measured by ELISA, as previously described (20). Mean values of triplicate cultures were shown. Data are representative of two or three independent experiments.

pulmonary NKT cells = experiment: Lung NKT cell subsets (CD4+, DN) by FACS after i.p. glycolipid in 2 week-old mice; assay type: in vivo, mouse; conditions: i.p. PI57 50 μg or α-GalCer 2 μg, lung 2 wks later
Description: In FIGS. 6A-6B, two-week-old BALB/c mice (n=6-8/group) (6A) or Tbet^−/− mice (6B) (n=4-6 per group) received 5 μg […] (cGal), 2 μg α-GalCer, or vehicle. After OVA sensitization and challenge, AHR was measured on day 44. In FIG. 6C, donor mice were treated with α-C-GalCer (5 μg) or vehicle i.p. NKT cells served as donors, as in FIG. 4A (n=4 per group). Lung resistance (left) and cell counts in BAL (right) were assessed. […] In FIG. 6E, mice received PI57 (50 μg), α-GalCer (2 μg), or vehicle i.p., and lungs were examined 1 or 14 days later for CD4 and CD8 expression. In FIG. 6F, absolute numbers of CD4^+ NKT and DN NKT subsets from 6E were assessed. In FIG. 6G, BALB/c mice (n=5-8/group) received PI57 or vehicle i.p. Lung resistance (left) and BAL cells (right) were assessed. In FIG. 6H, BALB/c mice treated with PI57 (50 μg), PBS30 (Sphingomonas glycolipid) (50 μg), or vehicle i.p. were assessed for AHR as in 6G. In FIG. 6I, donor mice were treated with PI57 (50 μg) or vehicle i.p. NKT cells served as donors as in FIG. 4A. Lung resistance (left) and BAL cells (right) were assessed (n=4 per group). […]
as §2

CCCCCCCCCCCCCC(=O)OC[C@H]1O[C@H](O[C@H]2CC[C@@]3(C)C(=CC[C@H]4[C@@H]5CC[C@H]([C@H](C)CCCC(C)C)[C@@]5(C)CC[C@@H]43)C2)[C@H](O)[C@@H](O)[C@@H]1O [PI57, Cholesteryl 6-O-tetradecanoyl-α-D-glucopyranoside]
fraction of PI57-CD1d tetramer+ cells that were CD4− (DN) (mouse NKT cell lines): 92% | NKT cells in an NKT cell line stained by glycolipid-loaded CD1d tetramers (mouse NKT cell lines; 4° C. for 45 minutes or 37° C. for 25 minutes): 10-23% | cytokine production with DCs from CD1d−/− mice (murine NKT cell lines; BMDCs from Cd1d−/− mice): failed to support PI57 induced cytokine production | cytokine production with DCs from MyD88−/− or Tri−/− mice (murine NKT cell lines; BMDCs from Myd88−/− or Trif−/− mice): induced cytokine production | IFN-γ production by NKT cell lines + dendritic cells (murine NKT cell lines; PI57 10 μg/ml, BMDCs): induced the production of IFN-γ in a CD1d-restricted manner | cytokine (IFN-γ) production after pre-incubation with anti-CD1d mAb (murine NKT cell lines; PI57 10 μg/ml, anti-CD1d 10 μg/ml): blocked | IFN-γ and IL-4 production compared to PBS30 or α-GalCer (murine NKT cell lines; WT BMDCs, PI57 2.5, 5 or 10 μg/ml): induced IFN-γ and less IL-4 | number of NKT cells (CD4+ and DN subsets) in the lung (pulmonary NKT cells): increased the total number of NKT cells, particularly the number of DN NKT cells
